Test results as given in PubChem BioAssay (NCI).
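Test compounds were applied to cells in 96-well plates for 48 hours at 5 doses. TGI marks complete inhibition of growth.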 Where a SMILES comes first, the peptide text is derived from it.

Columns and labels:
Experiment in all cases: growth of human tumour cells (NCI), 48 h
SF-268 CNS = system: SF-268 CNS
TK-10 renal = system: TK-10 renal
NCI/ADR-RES ovarian = system: NCI/ADR-RES ovarian
UACC-257 melanoma = system: UACC-257 melanoma
SW-620 colon = system: SW-620 colon
MOLT-4 leukemia = system: MOLT-4 leukemia
HS 578T breast = system: HS 578T breast
PC-3 prostate = system: PC-3 prostate
OVCAR-8 ovarian = system: OVCAR-8 ovarian
HL-60(TB) leukemia = system: HL-60(TB) leukemia

Structure (SMILES)	TGI (SF-268 CNS) [µM]	TGI (TK-10 renal) [µM]	TGI (NCI/ADR-RES ovarian) [µM]	TGI (UACC-257 melanoma) [µM]	TGI (SW-620 colon) [µM]	TGI (MOLT-4 leukemia) [µM]	TGI (HS 578T breast) [µM]	TGI (PC-3 prostate) [µM]	TGI (OVCAR-8 ovarian) [µM]	TGI (HL-60(TB) leukemia) [µM]
CCOC(=O)C12CC(C)=C(C)CC1CCCc1ccccc12 (stereo not given)	> 100	77.8	> 100	46.2	51.8	52.3	> 100	68.1	> 100	29.5
COP(=O)(OC)[C@H](O)[C@H]1C[C@@H]1c1ccccc1	> 100	> 100	> 100	> 100	> 100	> 100	> 100	> 100	> 100	> 100
COc1ccc(N=Cc2ccc(N(CCC#N)S(=O)(=O)c3ccccc3)cc2C)cc1	> 100	87.6		> 100	> 100	> 100			> 100	> 100
COc1cc(C2C(=O)C(Cl)N2Nc2nc(C)cc(=O)[nH]2)cc(OC)c1OC (stereo not given)	> 100	> 100		> 100	> 100	39.9			> 100	33.7
Cc1ccc2c3c1[C@@H]1O[C@@H]1c1cccc(c1-3)[C@@H]1O[C@H]21	34.1	38.5	90	33		12.8	60.2	30.7	40.5	
COc1cccc(NC(=O)CC(=O)NN2C(=O)/C(=C/c3ccc(N(CCC#N)CCC#N)cc3)N=C2c2cc([N+](=O)[O-])ccc2Cl)c1	> 100	> 100			> 100	> 100			> 100	
Cc1cn(Cc2cn(CC3OC(n4cc(C)c(=O)[nH]c4=O)CC3O)nn2)c(=O)[nH]c1=O (stereo not given)	> 100	> 100	> 100	> 100	> 100	> 100	> 100	> 100	> 100	
COc1ccc(N=Nc2c(N)nn(C)c2N)cc1	> 100	> 100		> 100	> 100	> 100			> 100	> 100
CCCCCCCCCCCCSC(=S)c1c(C)[nH]n(CCCCCCCCCCCC)c1=O	> 100			> 100	> 100	> 100			> 100	> 100
COC(=O)c1ccc2c(c1)sc1nc(-c3ccc(OC)cc3)cn12	> 100	> 100	> 100	> 100	> 100	> 100	> 100	> 100	> 100	> 100
CCCC[C@H]1C(=O)O[C@H](C)[C@H](NC(=O)c2cccc(NC=O)c2OC)C(=O)O[C@@H](C)[C@@H]1OC(=O)CC(C)C (tested in a mixture with another compound)	38.5	30.7	61.1	38.6	64.3	51.4	63.1	32.6	34.7	35.8
CCC(C)C(NC(=O)C(CC(C)C)NC(=O)CNC(=O)C(NC(=O)C1CCCN1C(=O)C(CC(C)C)NC(=O)C(N)Cc1ccccc1)C(C)CC)C(=O)NC(CC(C)C)C(N)=O (stereo not given) (H-FLPIGLIL-NH2; configuration not given here)	> 75	> 75	> 75	> 75	> 75	> 75	> 75	> 75	> 75	> 75
COc1ccc2c(c1)CCCc1c-2nc2ccccc2c1N	29.2	23.2	33.6	9.56	29	66.5	45.3	23.4	26.8	32.4
O=C(CSSCC(=O)OCCS(=O)(=O)Nc1ccc(Br)cc1)OCCS(=O)(=O)Nc1ccc(Br)cc1	63.2	87.8		44.6	44.2	15.4			45.2	38.7
O=c1c(-c2ccccc2)c(SCCN2CCOCC2)n(-c2ccccc2)c(=S)n1-c1ccccc1		> 100	> 100	> 100	> 100	> 100	> 100	> 100	> 100	> 100
CCCCCCCCCCCCCCCCCC(=O)OCC1OC(OC)C(NC(=O)N(CCCl)N=O)C(O)C1O (stereo not given)	26.7	> 100		39.4	47.8	57.3			> 100	
O=c1[nH]c(=O)n(CCOCP(=O)(O)O)nc1Br	> 100	> 100	> 100		> 100	> 100	> 100	> 100	> 100	> 100
Cc1cc(=O)n2c3c(c4c(cc13)c(CN(C)C)cc(=O)n4C)OC2	55.7	> 88.6	> 76.9	> 70.5	> 82.3	> 100	41.1	> 59.2	> 66.6	> 100
NC(=O)CCSC(CC(=O)c1ccc(Cl)cc1)c1ccc(Cl)cc1 (stereo not given)	82.1	> 100	52.5	> 100	12.2	35.8	> 100	> 100	32.3	25.6
